According to patent US8507538B2, “Selective heterocyclic sphingosine 1 phosphate receptor modulators” (Receptos, Inc., priority 2009, dated 2013):
Read-outs that look alike come from different tables or passages of the source.

Experiments:
[1] = tested on: CD4 or CD8 positive T cells; experiment: Lymphopenia in rats; type: in vivo; settings: rat, at 24 h after a 3-5 day dosing regimen
[2] = molecular target: T1, S1P3 (Homo sapiens, UniProt Q99500); experiment: Specificity over other S1P receptors: S1P3-Gα15 NFAT-bla HEK293T; type: cell-based; settings: without Forskolin; read-out: S1P3 agonist value (EC50)
T1 construct: host or cells: NFAT-bla HEK293T co-expressing Gα15
Experimental: (§1) Cells were seeded into 384-well black wall/clear bottom plates at 10^4 cells/well/19.5 μl assay media (DMEM-phenol free, 0.5% charcoal/dextran stripped serum, 2 mM glutamine, 0.1 mM NEAA, 1 mM Na-Pyruvate, 25 mM Hepes) and incubated for 18 hrs at 37° C. in 5% CO2. Dose response curves (10-point) were generated in 10 mM Hepes, 0.1% Pluronic F127, in the presence of Forskolin. Cells were treated with 0.5 μl compound in the presence of 2 μM Forskolin for 4 hrs at 37° C. The FRET-based β-lactamase fluorescent substrate (LiveBLAzer™ FRET B/G Loading Kit CC4-AM; Invitrogen) was prepared according to manufacturer's directions, and incubated with cells for 2 hrs at room temperature. Plates were read at Ex:410/Em:458 and Ex:410/Em:522, and the response ratio determined. Data was analyzed by non-linear regression to determine the EC50 for inhibition of Forskolin induced cAMP.
(§2) To assess compound specificity on other S1P receptors the following cell lines were used: S1P2 CRE-bla CHOK1, S1P3-Gα15 NFAT-bla HEK293T (Invitrogen), S1P4-bla TANGO U2OS (Invitrogen), S1P5-bla TANGO U2OS (Invitrogen). The same assay set up for S1P1 was used but without Forskolin. S1P4 and S1P5 assays were performed in FreeStyle Expression medium (Invitrogen). S1P5 cells were incubated for 48 hrs in prior to treatment with compound.

[3] = molecular target: S1P1/EDG1 (Homo sapiens, UniProt P21453); experiment: S1P1 CRE-bla CHOK1 reporter assay (inhibition of Forskolin induced cAMP); type: cell-based
Outline: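 Stable CRE-bla CHO-K1 clone expressing human S1P1, serum-starved (0.5% stripped serum) 18 h, then treated with compound (10-point curve) plus 2 μM forskolin for 4 h at 37 °C. β-lactamase FRET ratio (458/522 nm) read after 2 h substrate loading; EC50 for inhibition of forskolin-induced cAMP by non-linear regression.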

[4] = tested on: CD4 or CD8 positive T cells; experiment: Lymphopenia in rats; type: in vivo; settings: rat, 24 h after a 0.2 mg/kg single dose
Experimental: In rats: Female rats (Simonsen Laboratories, Gilroy Calif.) were housed in an ALAAC accredited facility and the research was approved by the facilities Institutional Animal Care and Use Committee (IACUC). The animals were acclimated to the laboratory for at least 5 days prior to initiation of experiments. Rats (n=3/compound/time-point) were dosed by oral gavage with 1 mg/kg compound formulated in a vehicle consisting of 5% DMSO/5% Tween 20 and 90% 0.1N HCL. Control rats were dosed PO with the vehicle. Whole blood was collected from isoflurane anesthetized rats via the retro-orbital sinus and terminal samples were collected by cardiac puncture into EDTA. Whole blood was incubated with mouse anti-rat CD32 (BD #550271), PE-mouse anti-rat CD45R/B220 (BD #554881), PECy5-mouse anti-rat CD4 (BD #554839), and APC-mouse anti-rat CD8a (eBioscience #17-0084) for 30 minutes on ice. Red blood cells were lysed using BD Pharm. Lyse Lysing buffer (#555899) and white blood cells were analyzed with a BD FACSArray. Lymphopenia was expressed as the % of white blood cells that were CD4 or CD8 positive T cells. The overall lymphopenia response over 24 h was estimated by calculating the area under the effect curve (AUEC) using the linear trapezoidal rule. In some experiments, total lymphocyte counts were determined using a standard impediance based veterinary hematology analyzer (IDEXX Preclinical Research Services, Sacramento, Calif.).
The percentage of lymphopenia at 24 h after a 0.2 mg/kg single dose regiment is reported. […] N/A is not available.

[5] = molecular target: T2, S1P5 (Homo sapiens, UniProt Q9H228); experiment: Specificity over other S1P receptors: S1P5-bla TANGO U2OS; type: cell-based; settings: without Forskolin, FreeStyle Expression medium; read-out: S1P5 agonist value (EC50)
T2 construct: Tango fusion (own knowledge: TEV protease site + GAL4-VP16 transcription factor fused to the receptor's C-terminus); host or cells: Tango bla U2OS
Experimental: as §1, §2

[6] = Table 3, read-out: S1P1 agonist value (EC50)
[7] = agonist activity range, Table 2, read-out: S1P1 ACTIVITY

S1P1/EDG1, sequence (P21453 whole entry): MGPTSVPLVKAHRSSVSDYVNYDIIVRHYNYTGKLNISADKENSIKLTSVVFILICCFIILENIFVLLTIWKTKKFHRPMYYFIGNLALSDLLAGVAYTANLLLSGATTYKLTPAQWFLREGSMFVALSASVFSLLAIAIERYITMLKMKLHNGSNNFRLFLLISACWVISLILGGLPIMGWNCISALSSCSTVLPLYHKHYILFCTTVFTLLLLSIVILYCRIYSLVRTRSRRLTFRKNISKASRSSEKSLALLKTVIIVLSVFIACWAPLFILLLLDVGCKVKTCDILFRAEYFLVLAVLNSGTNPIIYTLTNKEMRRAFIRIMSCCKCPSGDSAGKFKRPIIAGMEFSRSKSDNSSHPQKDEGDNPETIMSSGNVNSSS
T2 sequence (Q9H228 whole entry, the tested form may be a part): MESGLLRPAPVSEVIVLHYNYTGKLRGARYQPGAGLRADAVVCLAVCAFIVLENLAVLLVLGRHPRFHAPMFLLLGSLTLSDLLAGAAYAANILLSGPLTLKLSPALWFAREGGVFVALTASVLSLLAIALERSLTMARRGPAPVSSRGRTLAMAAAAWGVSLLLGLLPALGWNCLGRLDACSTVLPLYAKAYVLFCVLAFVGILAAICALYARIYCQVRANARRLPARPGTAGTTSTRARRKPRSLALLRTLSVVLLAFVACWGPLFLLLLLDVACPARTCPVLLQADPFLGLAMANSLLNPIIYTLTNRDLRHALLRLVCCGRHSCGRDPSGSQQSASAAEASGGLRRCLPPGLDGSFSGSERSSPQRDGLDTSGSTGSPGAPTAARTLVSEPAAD
T1 sequence (Q99500 whole entry): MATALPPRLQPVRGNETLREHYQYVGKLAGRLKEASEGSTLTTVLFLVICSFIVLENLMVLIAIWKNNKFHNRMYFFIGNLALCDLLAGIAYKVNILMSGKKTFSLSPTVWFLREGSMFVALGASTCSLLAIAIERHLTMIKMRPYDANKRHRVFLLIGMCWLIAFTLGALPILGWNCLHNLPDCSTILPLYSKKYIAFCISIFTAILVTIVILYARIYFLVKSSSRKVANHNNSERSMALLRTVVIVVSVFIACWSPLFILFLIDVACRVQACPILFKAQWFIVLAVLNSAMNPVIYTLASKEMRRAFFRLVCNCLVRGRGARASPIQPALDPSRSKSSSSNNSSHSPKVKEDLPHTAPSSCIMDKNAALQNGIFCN

Compound	EC50 [3, 7] [nM]	other results
CC(C)Oc1ccc(-c2ncc(-c3cccc4c3CC[C@H]4NC(=O)N3CCOCC3)s2)cc1C#N [Compound 186, (R)-N-(4-(2-(3-cyano-4-isopropoxyphenyl)thiazol-5-yl)-2,3-dihydro-1H-inden-1-yl)morpholine-4-carboxamide]	–	ED50 ([1]; CD8 positive, read-out: ED50, estimated dose needed to produce 50% lymphopenia): 0.2 mg/kg; EC50 [2]: > 10000 nM; EC50 [3, 6]: 0.41 nM; inhibition in vivo at 0.2 mg/kg ([4]; CD8 positive, po): 25%; EC50 [5]: 126 nM
CC(C)Oc1ccc(-c2ncc(-c3cccc4c3CC[C@@H]4NC(=O)N3CCN(C)CC3)s2)cc1C#N [Compound 190]	0.5 to 5	–
CC(C)Oc1ccc(-c2ncc(-c3cccc4c3CC[C@@H]4NC(=O)N3CCN(C)CC3)s2)cc1C#N [Compound 191]	> 5	–
CC(C)Oc1ccc(-c2ncc(-c3cccc4c3CC[C@@H]4NC(=O)N3CCC(N(C)C)CC3)s2)cc1C#N [Compound 192]	> 5	–
CC(C)Oc1ccc(-c2ncc(-c3cccc4c3CC[C@@H]4NC(=O)N3CCC(CO)CC3)s2)cc1C#N [Compound 194]	0.5 to 5	–
CC(C)Oc1ccc(-c2ncc(-c3cccc4c3CC[C@@H]4NC(=O)N3CCC[C@H](O)C3)s2)cc1C#N [Compound 196]	0.5 to 5	–
CC(C)Oc1ccc(-c2ncc(-c3cccc4c3CC[C@@H]4NC(=O)N3CCC[C@H](O)C3)s2)cc1C#N [Compound 197]	0.5 to 5	–
CC(C)Oc1ccc(-c2ncc(-c3cccc4c3CC[C@@H]4NC(=O)N3CCC[C@H](O)C3)s2)cc1C#N [Compound 198]	0.05 to 0.5	–
CC(C)Oc1ccc(-c2ncc(-c3cccc4c3CC[C@@H]4NC(=O)N3CCC[C@H](O)C3)s2)cc1C#N [Compound 199]	0.05 to 0.5	–
CC(C)Oc1ccc(-c2ncc(-c3cccc4c3CC[C@@H]4NC(=O)N3CCC(CC(=O)O)CC3)s2)cc1C#N [Compound 200]	0.05 to 0.5	–
CC(C)Oc1ccc(-c2ncc(-c3cccc4c3CC[C@@H]4NC(=O)N3CCC(O)CC3)s2)cc1C#N [Compound 202]	0.5 to 5	–
COC(=O)CC1CCN(C(=O)N[C@H]2CCc3c(-c4cnc(-c5ccc(OC(C)C)c(C#N)c5)s4)cccc32)CC1 [Compound 204]	0.5 to 5	–
CC(C)Oc1ccc(-c2ncc(-c3cccc4c3CC[C@@H]4N3CCC3)s2)cc1C#N [Compound 206]	0.05 to 0.5	–
CC(C)Oc1ccc(-c2ncc(-c3cccc4c3CCC4N3CC(O)C3)s2)cc1C#N (stereo not drawn) [Compound 207, 5-(5-(1-(3-hydroxyazetidin-1-yl)-2,3-dihydro-1H-inden-4-yl)thiazol-2-yl)-2-isopropoxybenzonitrile]	0.5 to 5	–
CC(C)Oc1ccc(-c2ncc(-c3cccc4c3CCC4N3CCCC3)s2)cc1C#N (stereo not drawn) [Compound 208]	0.5 to 5	–
CC(C)Oc1ccc(-c2ncc(-c3cccc4c3CCC4N3CC[C@@H](O)C3)s2)cc1C#N (stereo partly drawn) [Compound 209]	0.5 to 5	–
CC(C)Oc1ccc(-c2ncc(-c3cccc4c3CCC4N3CC[C@H](O)C3)s2)cc1C#N (stereo partly drawn) [Compound 210]	0.5 to 5	–
CC(C)Oc1ccc(-c2ncc(-c3cccc4c3CCC4N3CC[C@H](N)C3)s2)cc1C#N (stereo partly drawn) [Compound 211]	0.5 to 5	–
CC(C)Oc1ccc(-c2ncc(-c3cccc4c3CCC4N3CC[C@@H](N)C3)s2)cc1C#N (stereo partly drawn) [Compound 212]	> 5	–

Compound	EC50 [3, 7] [nM]	other results
CC(C)Oc1ccc(-c2ncc(-c3cccc4c3CCC4N3CCCCC3)s2)cc1C#N (stereo not drawn) [Compound 213]	0.5 to 5	–
CC(C)Oc1ccc(-c2ncc(-c3cccc4c3CCC4N3CCOCC3)s2)cc1C#N (stereo not drawn) [Compound 214]	0.5 to 5	–
CC(C)Oc1ccc(-c2ncc(-c3cccc4c3CCC4N3CCNCC3)s2)cc1C#N (stereo not drawn) [Compound 215]	0.5 to 5	–
CC(C)Oc1ccc(-c2ncc(-c3cccc4c3CCC4N3CCN(C)CC3)s2)cc1C#N (stereo not drawn) [Compound 216]	0.5 to 5	–
CC(C)Oc1ccc(-c2ncc(-c3cccc4c3CCC4NC3CCOCC3)s2)cc1C#N (stereo not drawn) [Compound 217]	> 5	–
CC(C)Oc1ccc(-c2ncc(-c3cccc4c3CCC4NC3CCCCC3)s2)cc1C#N (stereo not drawn) [Compound 218]	> 5	–
CNS(=O)(=O)CCNC1CCc2c(-c3cnc(-c4ccc(OC(C)C)c(C#N)c4)s3)cccc21 (stereo not drawn) [Compound 219]	0.05 to 0.5	–
CC(C)Oc1ccc(-c2ncc(-c3cccc4c3CC[C@@H]4NCCS(C)(=O)=O)s2)cc1C#N [Compound 221, (S)-2-isopropoxy-5-(5-(1-((2-(methylsulfonyl)ethyl)amino)-2,3-dihydro-1H-inden-4-yl)thiazol-2-yl)benzonitrile]	0.05 to 0.5	–
CC(C)Oc1ccc(-c2cnc(-c3cccc4c3CCC4O)s2)cc1C#N (stereo not drawn) [Compound 222, 5-(2-(1-hydroxy-2,3-dihydro-1H-inden-4-yl)thiazol-5-yl)-2-isopropoxy-benzonitrile]	> 5	–
CC(C)Oc1ccc(-c2ccc(-c3cccc4c3CCC4O)s2)cc1C#N (stereo not drawn) [Compound 223, 5-(5-(1-hydroxy-2,3-dihydro-1H-inden-4-yl)thiophen-2-yl)-2-isopropoxybenzonitrile]	0.5 to 5	–
CC(C)Oc1ccc(-c2ccc(-c3cccc4c3CCC4NCCO)s2)cc1C#N (stereo not drawn) [Compound 224, 5-(5-(1-(2-hydroxyethylamino)-2,3-dihydro-1H-inden-4-yl)thiophen-2-yl)-2-isopropoxybenzonitrile]	> 5	–
CC(C)Oc1ccc(-c2ccc(-c3cccc4c3CC[C@H]4N)s2)cc1C#N [Compound 225, (R)-5-(5-(1-amino-2,3-dihydro-1H-inden-4-yl)thiophen-2-yl)-2-isopropoxybenzonitrile]	> 5	–
CC(C)Oc1ccc(-c2cc(-c3cccc4c3CCC4O)cs2)cc1C#N (stereo not drawn) [Compound 226, 5-(4-(1-hydroxy-2,3-dihydro-1H-inden-4-yl)thiophen-2-yl)-2-isopropoxybenzonitrile]	0.5 to 5	–
CC(C)Oc1ccc(-c2csc(-c3cccc4c3CCC4O)c2)cc1C#N (stereo not drawn) [Compound 227, 5-(5-(1-hydroxy-2,3-dihydro-1H-inden-4-yl)thiophen-3-yl)-2-isopropoxybenzonitrile]	> 5	–
(R)-2-(N-(4-(5-(3-cyano-4-isopropoxyphenyl)-1,3,4-thiadiazol-2-yl)-2,3-dihydro-1H-inden-1-yl)sulfamoyl)-N,N-dimethylacetamide [Compound 43]	–	EC50 [3, 6]: 0.07 nM; % Lymphopenia after 24 h (0.2 mg/kg) [4]: 40%; EC50 [5]: 444 nM
(R)-N-(4-(2-(3-cyano-4-isopropoxyphenyl)thiazol-5-yl)-2,3-dihydro-1H-inden-1-yl)pyrrolidine-1-carboxamide [Compound 172]	–	ED50, estimated dose needed to produce 50% lymphopenia [1]: 0.20 mg/kg; % Lymphopenia after 24 h (0.2 mg/kg) [4]: 22%
(R)-N-(4-(2-(3-cyano-4-isopropoxyphenyl)thiazol-5-yl)-2,3-dihydro-1H-inden-1-yl)sulfamide [Compound 166]	–	ED50, estimated dose needed to produce 50% lymphopenia [1]: 0.07 mg/kg; % Lymphopenia after 24 h (0.2 mg/kg) [4]: 47%
(R)-N-((R)-4-(5-(3-cyano-4-isopropoxyphenyl)-1,3,4-thiadiazol-2-yl)-2,3-dihydro-1H-inden-1-yl)-3-(dimethylamino)pyrrolidine-1-carboxamide [Compound 56]	–	% Lymphopenia after 24 h (0.2 mg/kg) [4]: 52%
